# How the values were obtained:
# BRG-1 = BRG-1 (Homo sapiens, UniProt P51532); test: ATPase catalytic activity assay (ADP-Glo), BRG-1; conditions: for Emax: 1 h, read-out: BRG1 Max % Inhibition, ADP-Glo, 30 nM BRG-1, 400 μM ATP
# BRM = BRM (Homo sapiens, UniProt P51531); test: ATPase catalytic activity assay (ADP-Glo), BRM; conditions: 30 nM BRM, 400 μM ATP; for IC50: BRM ATPase: IC50 (uM)
# Sequence of BRM (P51531 whole entry): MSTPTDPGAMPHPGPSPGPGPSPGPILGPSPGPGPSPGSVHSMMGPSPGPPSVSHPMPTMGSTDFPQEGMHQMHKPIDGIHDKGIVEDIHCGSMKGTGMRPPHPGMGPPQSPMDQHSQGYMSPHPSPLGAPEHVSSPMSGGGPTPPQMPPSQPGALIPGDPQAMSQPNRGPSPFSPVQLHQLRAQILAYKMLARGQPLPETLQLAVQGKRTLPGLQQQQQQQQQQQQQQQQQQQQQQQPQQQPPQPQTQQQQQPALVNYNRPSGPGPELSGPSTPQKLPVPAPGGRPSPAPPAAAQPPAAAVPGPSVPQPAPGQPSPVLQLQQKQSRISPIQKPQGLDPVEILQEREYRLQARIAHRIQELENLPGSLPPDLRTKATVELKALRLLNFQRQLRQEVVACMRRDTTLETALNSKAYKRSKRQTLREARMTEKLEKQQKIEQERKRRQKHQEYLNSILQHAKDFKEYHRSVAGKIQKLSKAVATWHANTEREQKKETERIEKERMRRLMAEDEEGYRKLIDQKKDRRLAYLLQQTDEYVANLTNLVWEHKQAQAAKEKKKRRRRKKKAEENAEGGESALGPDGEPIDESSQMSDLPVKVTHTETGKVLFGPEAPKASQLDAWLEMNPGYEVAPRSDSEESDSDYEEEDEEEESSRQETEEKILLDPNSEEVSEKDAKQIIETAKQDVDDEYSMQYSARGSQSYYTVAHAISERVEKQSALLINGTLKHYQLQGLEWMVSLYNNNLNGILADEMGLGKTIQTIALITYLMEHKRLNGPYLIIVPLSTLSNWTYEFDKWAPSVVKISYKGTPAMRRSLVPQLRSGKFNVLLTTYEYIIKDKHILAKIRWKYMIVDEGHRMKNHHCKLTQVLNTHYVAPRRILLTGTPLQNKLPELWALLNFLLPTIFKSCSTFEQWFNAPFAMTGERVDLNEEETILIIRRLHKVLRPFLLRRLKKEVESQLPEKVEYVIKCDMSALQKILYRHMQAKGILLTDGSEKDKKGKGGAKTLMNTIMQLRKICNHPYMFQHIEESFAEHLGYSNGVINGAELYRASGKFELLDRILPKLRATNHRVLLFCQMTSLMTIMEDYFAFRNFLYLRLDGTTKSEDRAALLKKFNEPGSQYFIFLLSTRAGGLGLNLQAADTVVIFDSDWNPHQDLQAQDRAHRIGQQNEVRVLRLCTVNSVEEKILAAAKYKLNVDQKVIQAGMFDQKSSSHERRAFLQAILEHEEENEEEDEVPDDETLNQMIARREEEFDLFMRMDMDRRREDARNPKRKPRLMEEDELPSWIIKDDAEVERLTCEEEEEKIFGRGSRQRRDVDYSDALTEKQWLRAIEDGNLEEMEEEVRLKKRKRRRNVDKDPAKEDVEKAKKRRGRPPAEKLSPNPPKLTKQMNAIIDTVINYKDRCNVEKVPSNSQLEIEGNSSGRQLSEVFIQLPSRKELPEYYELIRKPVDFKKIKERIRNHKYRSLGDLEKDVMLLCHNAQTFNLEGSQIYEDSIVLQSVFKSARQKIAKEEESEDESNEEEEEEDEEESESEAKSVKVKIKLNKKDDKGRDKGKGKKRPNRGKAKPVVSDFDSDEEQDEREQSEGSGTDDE
# Sequence of BRG-1 (P51532 whole entry): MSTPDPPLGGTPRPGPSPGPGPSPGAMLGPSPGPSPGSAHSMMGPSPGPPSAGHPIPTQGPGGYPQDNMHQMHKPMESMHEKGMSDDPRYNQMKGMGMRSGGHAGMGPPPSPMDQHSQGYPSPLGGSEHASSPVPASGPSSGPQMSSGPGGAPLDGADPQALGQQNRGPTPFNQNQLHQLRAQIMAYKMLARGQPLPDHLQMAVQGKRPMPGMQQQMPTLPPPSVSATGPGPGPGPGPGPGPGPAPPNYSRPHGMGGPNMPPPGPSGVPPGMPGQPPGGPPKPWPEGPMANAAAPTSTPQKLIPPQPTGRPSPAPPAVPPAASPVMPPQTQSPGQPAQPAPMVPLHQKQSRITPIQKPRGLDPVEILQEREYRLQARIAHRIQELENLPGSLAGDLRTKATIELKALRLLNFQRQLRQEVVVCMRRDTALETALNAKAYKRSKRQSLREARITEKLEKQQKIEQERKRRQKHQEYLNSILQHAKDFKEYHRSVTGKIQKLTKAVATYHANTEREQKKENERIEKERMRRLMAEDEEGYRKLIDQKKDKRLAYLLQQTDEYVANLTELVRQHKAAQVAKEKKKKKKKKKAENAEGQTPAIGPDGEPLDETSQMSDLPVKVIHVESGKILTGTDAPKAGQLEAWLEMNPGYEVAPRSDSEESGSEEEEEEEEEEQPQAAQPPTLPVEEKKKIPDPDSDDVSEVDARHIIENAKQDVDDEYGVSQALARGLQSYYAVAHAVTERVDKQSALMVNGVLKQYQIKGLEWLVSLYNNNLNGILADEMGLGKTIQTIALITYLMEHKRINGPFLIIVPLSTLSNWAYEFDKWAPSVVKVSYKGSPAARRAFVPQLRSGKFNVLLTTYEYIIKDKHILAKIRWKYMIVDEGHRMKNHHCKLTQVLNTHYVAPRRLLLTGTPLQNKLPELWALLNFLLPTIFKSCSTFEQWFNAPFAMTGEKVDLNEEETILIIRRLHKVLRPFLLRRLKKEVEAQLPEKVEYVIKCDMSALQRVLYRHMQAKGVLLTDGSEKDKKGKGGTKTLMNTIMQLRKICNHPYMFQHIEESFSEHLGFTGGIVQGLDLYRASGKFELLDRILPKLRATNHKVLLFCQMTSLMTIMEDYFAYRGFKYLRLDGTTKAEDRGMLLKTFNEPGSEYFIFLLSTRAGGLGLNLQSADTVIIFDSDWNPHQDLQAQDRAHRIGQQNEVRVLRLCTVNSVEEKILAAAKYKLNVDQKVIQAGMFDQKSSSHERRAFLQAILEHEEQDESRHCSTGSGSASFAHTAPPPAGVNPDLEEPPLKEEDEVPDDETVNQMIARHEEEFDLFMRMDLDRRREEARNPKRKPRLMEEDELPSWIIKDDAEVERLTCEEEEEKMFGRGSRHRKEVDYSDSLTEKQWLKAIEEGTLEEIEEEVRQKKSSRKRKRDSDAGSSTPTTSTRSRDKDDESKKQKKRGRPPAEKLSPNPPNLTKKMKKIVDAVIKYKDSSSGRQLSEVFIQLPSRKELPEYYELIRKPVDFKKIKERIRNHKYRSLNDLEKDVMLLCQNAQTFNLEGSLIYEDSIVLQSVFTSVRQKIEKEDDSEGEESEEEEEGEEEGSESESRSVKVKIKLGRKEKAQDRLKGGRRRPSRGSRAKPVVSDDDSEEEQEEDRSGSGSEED
SMILES,IC50 (BRG-1) [nM],Emax (BRG-1) [%],BRM Max % Inhibition (BRM) [%],IC50 (BRM) [µM]
Cn1nc(-c2ccc3cnc(CNC(=O)c4ccc5c(c4)[C@](C)(C#N)COC5)cc3n2)cc1C(F)F [Compound 162],500 to 1000,59,91,0.1 to 0.5
COC(C)(C)C#Cc1cccc(-c2ccc3cnc(CNC(=O)c4ccc5c(c4)[C@](C)(C#N)COC5)cc3n2)n1 [Compound 163],100 to 500,87,98,< 0.1
C[C@@]1(C#N)COCc2ccc(C(=O)NCc3cc4nc(-c5cc6ccccn6n5)ccc4cn3)cc21 [Compound 164],500 to 1000,68,92,0.1 to 0.5
C[C@@]1(C#N)COCc2ccc(C(=O)NCc3cc4nc(-c5ccc6ccc(=O)n(C7CC7)c6n5)ccc4cn3)cc21 [Compound 165],100 to 500,80,97,< 0.1
C[C@@]1(C#N)COCc2ccc(C(=O)NCc3cc4nn(-c5cccc(N6CCC6)n5)cc4cn3)cc21 [Compound 166],> 1000,40,91,0.1 to 0.5
C[C@@]1(C#N)COCc2ccc(C(=O)NCc3ncc4ccc(-c5ccccc5)nc4c3F)cc21 [Compound 167],500 to 1000,69,93,0.1 to 0.5
C[C@@]1(F)COCc2ccc(C(=O)NCc3cc4nc(-c5cccc(C6(CO)CC6)n5)ccc4cn3)cc21 [Compound 168],100 to 500,93,99,< 0.1
C[C@@]1(F)COCc2ccc(C(=O)NCc3cc4nc(-c5cccc(C6(O)CC(F)(F)C6)n5)ccc4cn3)cc21 [Compound 169],100 to 500,91,98,< 0.1
CC(C)(O)C#Cc1cccc(-c2ccc3cnc(CNC(=O)c4ccc5c(c4)[C@](C)(C#N)COC5)cc3n2)n1 [Compound 170],500 to 1000,80,96,0.1 to 0.5
Cn1ccc2c(-c3ccc4cnc(CNC(=O)c5ccc6c(c5)[C@](C)(C#N)COC6)cc4n3)cc(F)cc21 [Compound 171],100 to 500,92,98,< 0.1
Cc1cc2c(-c3ccc4cnc(CNC(=O)c5ccc6c(c5)[C@](C)(C#N)COC6)cc4n3)cccc2n1C [Compound 172],< 100,97,99,< 0.1
C[C@@]1(C#N)COCc2ccc(C(=O)NCc3cc4nc(-c5cccc6c5ccn6C5CC5)ccc4cn3)cc21 [Compound 173],100 to 500,94,98,< 0.1
CC(C)n1ccc2c(-c3ccc4cnc(CNC(=O)c5ccc6c(c5)[C@](C)(C#N)COC6)cc4n3)cccc21 [Compound 174],100 to 500,95,98,< 0.1
COc1cc(C2COC2)ccc1-c1ccc2cnc(CNC(=O)c3ccc4c(c3)[C@](C)(C#N)COC4)cc2n1 [Compound 175],100 to 500,86,97,< 0.1
[2H]C1([2H])OC([2H])([2H])[C@@](C)(F)c2cc(C(=O)NCc3cc4nc(-c5cncc(C6CC6)n5)ccc4cn3)cnc21 [Compound 176],500 to 1000,83,98,< 0.1
Cc1cn(C)c2cccc(-c3ccc4cnc(CNC(=O)c5ccc6c(c5)[C@](C)(C#N)COC6)cc4n3)c12 [Compound 177],500 to 1000,66,94,0.1 to 0.5

SMILES,IC50 (BRG-1) [nM],Emax (BRG-1) [%],BRM Max % Inhibition (BRM) [%],IC50 (BRM) [µM]
CCn1ccc2c(-c3ccc4cnc(CNC(=O)c5ccc6c(c5)[C@](C)(C#N)COC6)cc4n3)cccc21 [Compound 178],100 to 500,96,99,< 0.1
Cn1ccc2c(-c3ccc4cnc(CNC(=O)c5ccc6c(c5)[C@](C)(C#N)COC6)cc4n3)cccc21 [Compound 179],100 to 500,96,99,< 0.1
Cn1c(=O)ccc2ccc(-c3ccc4cnc(CNC(=O)c5ccc6c(c5)[C@](C)(C#N)COC6)cc4n3)nc21 [Compound 180],100 to 500,99,100,< 0.1
C[C@@]1(C#N)COCc2ncc(C(=O)NCc3cc4cc(-c5cncc(C6CC6)n5)ccc4cn3)cc21 [Compound 181],100 to 500,97,100,< 0.1
Cn1ncc2c(-c3ccc4cnc(CNC(=O)c5ccc6c(c5)[C@](C)(C#N)COC6)cc4n3)cccc21 [Compound 182],100 to 500,95,99,< 0.1
C[C@@]1(F)COCc2ncc(C(=O)NCc3cc4nc(-c5ccnc(N6CCC6)n5)cnc4cn3)cc21 [Compound 183],100 to 500,82,98,< 0.1
COc1c(-c2ccc3cnc(CNC(=O)c4ccc5c(c4)[C@](C)(C#N)COC5)cc3n2)cnn1C(F)F [Compound 184],500 to 1000,67,94,0.1 to 0.5
COc1nn([C@H]2C[C@H](F)C2)cc1-c1ccc2cnc(CNC(=O)c3ccc4c(c3)[C@](C)(C#N)COC4)cc2n1 [Compound 185],100 to 500,87,99,< 0.1
C[C@@]1(C#N)COCc2ccc(C(=O)NCc3cc4nc(-c5cn(C6COC6)nc5C5CC5)ccc4cn3)cc21 [Compound 186],500 to 1000,66,97,< 0.1
Cc1c(-c2ccc3cnc(CNC(=O)c4ccc5c(c4)[C@](C)(C#N)COC5)cc3n2)cnn1C1COC1 [Compound 187],> 1000,42,88,0.1 to 0.5
Cc1nn(C2COC2)cc1-c1ccc2cnc(CNC(=O)c3ccc4c(c3)[C@](C)(C#N)COC4)cc2n1 [Compound 188],> 1000,41,93,0.1 to 0.5
C[C@@]1(C#N)COCc2ncc(C(=O)NCc3cc4nc(-c5cccc(C6CC6)n5)ccc4nn3)cc21 [Compound 189],100 to 500,93,99,< 0.1
C[C@@]1(F)COCc2ccc(C(=O)NCc3cc4nc(-c5ccnc(N6CCC6)n5)cnc4cn3)cc21 [Compound 190],100 to 500,89,98,< 0.1
C[C@@]1(F)COCc2ccc(C(=O)NCc3cc4nc(-c5ccnc(C6CC6)n5)cnc4cn3)cc21 [Compound 191],500 to 1000,76,97,< 0.1
COc1nn(C(F)F)cc1-c1ccc2cnc(CNC(=O)c3cnc4c(c3)[C@](C)(F)COC4)cc2n1 [Compound 192],500 to 1000,60,94,0.1 to 0.5
